Patent publication US7767659B2, “Synthesis of naturally occurring ecteinascidins and related compounds” (Pharma Mar, S.A., priority 2002, dated 2010)
Read-outs that look alike come from different tables or passages of the source.

Tests used:
LoVo = test: cells; settings: Homo sapiens, LoVo, 48 h; for GI50: read-out: LOVO GI50; for CC50: read-out: LOVO LC50; for IC (TGI): read-out: LOVO TGI
Method in brief: (§1)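 Colorimetric SRB read (490 nm) on triplicate wells after 48 h at 37 °C, 5% CO2. Dose range 10 to 10^−8 μg/ml; 5×10^3 cells/well pre-attached 18 h.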

HT-29 = test: cells; settings: Homo sapiens, HT-29, 48 h
Method in brief: as §1

A-549 = test: cells; settings: Homo sapiens, A549, 48 h
Method in brief: as §1

SK-MEL-28 = test: Inhibition of cells growth by colorimetric assay (SRB); settings: Homo sapiens, SK-MEL-28, 48 h; for GI50: read-out: MEL-28 GI50; for CC50: read-out: MEL-28 LC50; for IC (TGI): read-out: MEL-28 TGI
Method in brief: as §1

SK-OV-3 = test: as above; settings: for GI50: read-out: SK-OV3 GI50; for SK-OV3 TGI: SRB, 48 hours exposure
Method in brief: as §1

K-562 = test: as above; settings: Homo sapiens, K562, 48 h; for GI50: read-out: K562 GI50; for CC50: read-out: K562 LC50; for IC (TGI): read-out: K562 TGI
Method in brief: as §1

DU-145 = test: as above; settings: Homo sapiens, DU-145, 48 h; for GI50: read-out: DU145 GI50; for CC50: read-out: DU145 LC50; for IC (TGI): read-out: DU145 TGI
Method in brief: as §1

IGROV-1 = test: as above; settings: Homo sapiens, IGROV-1, 48 h; for GI50: read-out: IGROV GI50; for CC50: read-out: IGROV LC50; for IC (TGI): read-out: IGROV TGI
Method in brief: as §1

IGROV-ET = test: as above; settings: Homo sapiens, 48 h; for GI50: read-out: IGROV-ET GI50; for CC50: read-out: IGROV-ET LC50; for IC (TGI): read-out: IGROV-ET TGI
Method in brief: as §1

PANC-1 = test: as above; settings: Homo sapiens, PANC-1, 48 h; for GI50: read-out: PANC-1 GI50; for CC50: read-out: PANC-1 LC50; for IC (TGI): read-out: PANC-1 TGI
Method in brief: as §1

SK-BR-3 = test: as above; settings: Homo sapiens, SK-BR-3, 48 h; for GI50: read-out: SK-BR3 GI50; for CC50: read-out: SK-BR3 LC50; for IC (TGI): read-out: SK-BR3 TGI
Method in brief: as §1

HMEC1 = test: as above; settings: for H-MEC-1 TGI / TGI H-MEC-1: SRB, 48 hours exposure; for GI50: Homo sapiens, HMEC-1, 48 h
Method in brief: as §1

LoVo-Dox = test: as above; settings: Homo sapiens, 48 h; for GI50: read-out: LOVO-DOX GI50; for IC (TGI): read-out: LOVO-DOX TGI
Method in brief: as §1

LNCaP = test: as above; settings: Homo sapiens, LNCaP, 48 h; for GI50: read-out: LNCAP GI50; for CC50: read-out: LNCAP LC50; for IC (TGI): read-out: LNCAP TGI
Method in brief: as §1

[1] = as above; settings: human
Method in brief: as §1

COc1cc2c(cc1O)CCN[C@]21CS[C@@H]2c3c(OC(C)=O)c(C)c4c(c3[C@H](COC1=O)N1[C@@H]2[C@H]2c3c(cc(C)c(OC)c3O)C[C@@H]([C@@H]1O)N2C)OCO4 [Et-743, ecteinascidin 743, reference compound]
GI50 (LoVo): 0.00156 µM | CC50 (LoVo): 0.0114 µM | IC (TGI) (LoVo): 0.00423 µM | GI50 (HT-29; read-out: HT29 GI50): 0.00341 µM | CC50 (HT-29; read-out: HT29 LC50): 13.1 µM | IC (TGI) (HT-29; read-out: HT29 TGI): 0.0111 µM | GI50 (A-549; read-out: A549 GI50): 0.00252 µM | CC50 (A-549; read-out: A549 LC50): 0.0121 µM | IC (TGI) (A-549; read-out: A549 TGI): 0.00551 µM | GI50 (SK-MEL-28): 0.000742 µM | CC50 (SK-MEL-28): 0.0112 µM | IC (TGI) (SK-MEL-28): 0.00306 µM | GI50 (SK-OV-3; Homo sapiens, SK-OV-3, 48 h): 0.00131 µM | SK-OV3 TGI (SK-OV-3): 1.30E−08 Molar | GI50 (K-562): 0.000347 µM | CC50 (K-562): 0.00106 µM | IC (TGI) (K-562): 0.000605 µM | GI50 (DU-145): 0.000618 µM | CC50 (DU-145): 4.33 µM | IC (TGI) (DU-145): 0.00129 µM | GI50 (IGROV-1): 0.000579 µM | CC50 (IGROV-1): 0.0103 µM | IC (TGI) (IGROV-1): 0.0026 µM | GI50 (IGROV-ET): 0.00429 µM | CC50 (IGROV-ET): 0.0186 µM | IC (TGI) (IGROV-ET): 0.00786 µM | GI50 (PANC-1): 0.00159 µM | CC50 (PANC-1): 0.0399 µM | IC (TGI) (PANC-1): 0.00634 µM | GI50 (SK-BR-3): 0.000479 µM | CC50 (SK-BR-3): 0.00857 µM | IC (TGI) (SK-BR-3): 0.00172 µM | H-MEC-1 TGI (HMEC1): 6.88E−08 Molar | GI50 (HMEC1; read-out: H-MEC-1 GI50): 0.00903 µM | GI50 (LoVo-Dox): 0.0295 µM | IC (TGI) (LoVo-Dox): 0.11 µM | GI50 (LNCaP): 0.00023 µM | CC50 (LNCaP): 0.00122 µM | IC (TGI) (LNCaP): 0.000529 µM

COc1cc2c(cc1O)CCN[C@]21CS[C@@H]2c3c(OC(C)=O)c(C)c4c(c3[C@H](COC1=O)N1C[C@@H]3Cc5cc(C)c(OC)c(O)c5C(C21)N3C)OCO4 (stereo partly drawn) [Et-745]
GI50 (LoVo): 5.55 µM | CC50 (LoVo): 13.4 µM | IC (TGI) (LoVo): 13.4 µM | GI50 (HT-29; read-out: HT29 GI50): 0.522 µM | CC50 (HT-29; read-out: HT29 LC50): 13.4 µM | IC (TGI) (HT-29; read-out: HT29 TGI): 2.65 µM | GI50 (A-549; read-out: A549 GI50): 0.743 µM | CC50 (A-549; read-out: A549 LC50): 13.4 µM | IC (TGI) (A-549; read-out: A549 TGI): 4.77 µM | GI50 (SK-MEL-28): 0.602 µM | CC50 (SK-MEL-28): 8.62 µM | IC (TGI) (SK-MEL-28): 2.21 µM | CC50 at 48 h [1]: 13.4 µM | GI50 (SK-OV-3; Homo sapiens, SK-OV-3, 48 h): 1.32 µM | CC50 (SK-OV-3; Homo sapiens, SK-OV-3, 48 h, read-out: SK-OV3 LC50): 13.4 µM | SK-OV3 TGI (SK-OV-3): 5.48E−06 Molar | GI50 (K-562): 0.884 µM | CC50 (K-562): 13.4 µM | IC (TGI) (K-562): 3.9 µM | GI50 (DU-145): 0.488 µM | CC50 (DU-145): 13.4 µM | IC (TGI) (DU-145): 2.67 µM | GI50 (IGROV-1): 0.774 µM | CC50 (IGROV-1): 13.4 µM | IC (TGI) (IGROV-1): 3.26 µM | GI50 (IGROV-ET): 3.7 µM | CC50 (IGROV-ET): 13.4 µM | IC (TGI) (IGROV-ET): 8.45 µM | GI50 (PANC-1): 1.32 µM | CC50 (PANC-1): 13.4 µM | IC (TGI) (PANC-1): 9.22 µM | GI50 (SK-BR-3): 0.629 µM | CC50 (SK-BR-3): 13.4 µM | IC (TGI) (SK-BR-3): 3.15 µM | H-MEC-1 TGI (HMEC1): 3.67E−06 Molar | GI50 (HMEC1; read-out: H-MEC-1 GI50): 0.634 µM | GI50 (LoVo-Dox): 6.25 µM | CC50 (LoVo-Dox; read-out: LOVO-DOX LC50): 13.4 µM | IC (TGI) (LoVo-Dox): 13.4 µM | GI50 (LNCaP): 0.652 µM | CC50 (LNCaP): 9.81 µM | IC (TGI) (LNCaP): 2.39 µM

C=CCN1[C@@H]2c3c(cc(C)c(OC)c3O)C[C@H]1[C@H](C#N)N1C2[C@@H]2SCC(=O)C(=O)OC[C@H]1c1c3c(c(C)c(OC(C)=O)c12)OCO3 (stereo partly drawn) [compound 13]
GI50 (HT-29; read-out: GI50 HT29): 6.02 µM | CC50 (HT-29; read-out: LC50 HT29): 15.4 µM | IC (TGI) (HT-29; read-out: TGI HT29): 15.4 µM | GI50 (A-549; read-out: GI50 A549): 3.94 µM | CC50 (A-549; read-out: LC50 A549): 13.7 µM | IC (TGI) (A-549; read-out: TGI A549): 7.36 µM | CC50 at 48 h [1]: 15.4 µM | TGI H-MEC-1 (HMEC1): 1.54E−05 Molar | GI50 (HMEC1; read-out: GI50 H-MEC-1): 4.74 µM

C=CCN1[C@@H]2c3c(cc(C)c(OC)c3O)C[C@H]1[C@H](C#N)N1C2[C@@H]2SC[C@]3(NCCc4cc(O)c(OC)cc43)C(=O)OC[C@H]1c1c3c(c(C)c(OC(C)=O)c12)OCO3 (stereo partly drawn) [compound 14]
GI50 (HT-29; read-out: GI50 HT29): 1.77 µM | CC50 (HT-29; read-out: LC50 HT29): 12.5 µM | IC (TGI) (HT-29; read-out: TGI HT29): 6.39 µM | GI50 (A-549; read-out: GI50 A549): 2.23 µM | CC50 (A-549; read-out: LC50 A549): 11.7 µM | IC (TGI) (A-549; read-out: TGI A549): 5.11 µM | CC50 at 48 h [1]: 12.5 µM | TGI H-MEC-1 (HMEC1): 1.25E−05 Molar | GI50 (HMEC1; read-out: GI50 H-MEC-1): 3 µM

COc1cc2c(cc1O)CCN[C@]21CS[C@@H]2c3c(OC(C)=O)c(C)c4c(c3[C@H](COC1=O)N1C2C2N[C@@H](Cc3cc(C)c(OC)c(O)c32)[C@@H]1C#N)OCO4 (stereo partly drawn) [compound 15]
GI50 (HT-29; read-out: GI50 HT29): 0.000484 µM | CC50 (HT-29; read-out: LC50 HT29): 3.13 µM | IC (TGI) (HT-29; read-out: TGI HT29): 0.00535 µM | GI50 (A-549; read-out: GI50 A549): 0.002 µM | CC50 (A-549; read-out: LC50 A549): 0.176 µM | IC (TGI) (A-549; read-out: TGI A549): 0.00735 µM | CC50 at 48 h [1]: 4.44 µM | TGI H-MEC-1 (HMEC1): 1.32E−08 Molar | GI50 (HMEC1; read-out: GI50 H-MEC-1): 0.000556 µM

COc1c(C)cc2c(c1O)[C@@H]1C3[C@@H]4SCC(=O)C(=O)NC[C@@H](c5c6c(c(C)c(OC(C)=O)c54)OCO6)N3[C@@H](C#N)[C@H](C2)N1C (stereo partly drawn) [compound 75]
GI50 (HT-29; read-out: HT29 GI50): 0.33 µM | CC50 (HT-29; read-out: HT29 LC50): 16.1 µM | IC (TGI) (HT-29; read-out: HT29 TGI): 0.933 µM | GI50 (A-549; read-out: A549 GI50): 0.889 µM | CC50 (A-549; read-out: A549 LC50): 12.7 µM | IC (TGI) (A-549; read-out: A549 TGI): 4.01 µM | CC50 at 48 h [1]: 16.1 µM | H-MEC-1 TGI (HMEC1): 1.64E−06 Molar | GI50 (HMEC1; read-out: H-MEC-1 GI50): 0.279 µM

C=CCN1[C@@H]2c3c(cc(C)c(OC)c3OCOCCOC)C[C@H]1[C@H](C#N)N1C2CC2(O)C(=O)C(C)=C3OCOC3=C2[C@@H]1COC(=O)[C@H](CSCC1c2ccccc2-c2ccccc21)NC(=O)OC(C)(C)C (stereo partly drawn) [compound 10]
GI50 (HT-29; read-out: GI50 HT29): 1010 µM | CC50 (HT-29; read-out: LC50 HT29): 1010 µM | IC (TGI) (HT-29; read-out: TGI HT29): 1010 µM | GI50 (A-549; read-out: GI50 A549): 1010 µM | CC50 (A-549; read-out: LC50 A549): 1010 µM | IC (TGI) (A-549; read-out: TGI A549): 1010 µM | CC50 at 48 h [1]: 7.63 µM | TGI H-MEC-1 (HMEC1): 4.06E−06 Molar | GI50 (HMEC1; read-out: GI50 H-MEC-1): 2.15 µM
